How the values were obtained:
bacteria = assay: Bacteria population growth and activity from intensity of a diffraction maximum, treatment with antibiotic; assay type: cell-based
Source text: In FIG. 16, it can be seen that the intensity of the diffraction maximum decreases with time for the bacteria sample. This decrease is due to an increasing division of the bacteria, i.e. a continuous increase in the bacteria population or, in other words, an increase in the number of phase objects which increasingly disturb the constructive interference in the diffraction maximum and thereby lead to a decrease in the intensity. In FIG. 16, it can be further observed that with increasing time, the intensity increasingly fluctuates, which can be attributed to the activity of the cells.
Further shown in FIG. 17 is an exemplary enlarged section of the course of the measurement signals, in which the fluctuations of the signal can be clearly seen. By fitting a growth curve, which includes the division rate as a parameter, the division rate of the bacteria can be discerned from the signal.
It can be seen from FIG. 18 that the standard deviation increases with time. This standard deviation represents fluctuations of the signals on a short time scale which in turn are a measure for the activity of the bacteria, which will be explained in more detail with reference to FIG. 19 below.

[1] = system: Dictyostelium discoideum cell; assay: Cell motility by Fourier analysis of the temporal diffraction signal when an active substance is added; assay type: cell-based; conditions: active substance added to the medium in the sample chamber at time t=0; FIG. 14
Source text: In FIG. 11b, a three-dimensional view is shown top left, a plan view is shown top right, and a cross section of the sample holder G is shown at the bottom. […] A surrounding medium or an active substance can be introduced into the receptacle, which is formed by the sample chamber. A sensor with a grid, which is arranged on a substrate, is located within the sample chamber. […] Furthermore, biological cells are located on the grid, where the reaction of the cells to the active substances is to be investigated. In particular, in the illustrated case is to be investigated how the motility of the cells changes due to the addition of the active substance.
In this case, the time axis runs from top to bottom and the frequency axis runs from left to right. At time t=0, the active substance, Latruncalin A, is added to the medium located in the sample chamber.

| Structure (SMILES) | normalized intensity of the diffraction maximum as a function of time (bacteria; 4 mg/l applied at 60 min., FIG. 19 row 3 column c) | mean value of the standard deviation of the intensity as a function of time (bacteria; 4 mg/l applied at 60 min., FIG. 19 row 3 column d) | normalized intensity of the diffraction maximum as a function of time (bacteria; double dose of 2 mg/1, FIG. 19 row 2 column c) | mean value of the standard deviation of the intensity as a function of time (bacteria; double dose of 2 mg/1, FIG. 19 row 2 column d) | normalized intensity of the diffraction maximum as a function of time (bacteria; treated after 60 min. of growth, concentration 1 mg/l, FIG. 19 row 1 column c) | mean value of the standard deviation of the intensity as a function of time (bacteria; treated after 60 min. of growth, concentration 1 mg/l, FIG. 19 row 1 column d) | temporal course of the Fourier coefficients [1] |
| --- | --- | --- | --- | --- | --- | --- | --- |
| CC1(C)S[C@@H]2[C@H](NC(=O)[C@H](N)c3ccccc3)C(=O)N2[C@H]1C(=O)O [AMP] | the intensity starts increasing again after 90 min. | a rapid decrease in the standard deviation, which is even more pronounced than in the second row | the decrease in the normalized intensity flattens at 120 min. | at 120 min. the standard deviation decreases significantly, which is again indicative of cell death | the normalized intensity decreases, which indicates a further growth of the bacteria population | the standard deviation reaches a plateau at 120 min. and decreases thereafter, which suggests that the bacteria cells die |  |
| C/C1=C/C(=O)O[C@@H]2C[C@@H](CC[C@H](C)/C=C\C=C\CC1)O[C@@](O)([C@@H]1CSC(=O)N1)C2 [Latruncalin A, Latrunculin A] |  |  |  |  |  |  | a rise in the Fourier coefficients, which subside again with increasing exposure time |

Source: US10295463B2, “Device and method for investigating one or a plurality of phase objects” (Ludwig-Maximilians-Universität München, priority 2013, dated 2019)
